{
  "source": "patent EP4768479A1",
  "about": "(Hubei Bio-Pharmaceutical Industrial Technological Institute …, priority 2023, dated 2025)",
  "data": [
    {"target": "T1, AT2R (Homo sapiens, UniProt P50052)", "T1 construct": "purchased Cisbio #C1TT1AT2", "T1 sequence (P50052 1-363)": "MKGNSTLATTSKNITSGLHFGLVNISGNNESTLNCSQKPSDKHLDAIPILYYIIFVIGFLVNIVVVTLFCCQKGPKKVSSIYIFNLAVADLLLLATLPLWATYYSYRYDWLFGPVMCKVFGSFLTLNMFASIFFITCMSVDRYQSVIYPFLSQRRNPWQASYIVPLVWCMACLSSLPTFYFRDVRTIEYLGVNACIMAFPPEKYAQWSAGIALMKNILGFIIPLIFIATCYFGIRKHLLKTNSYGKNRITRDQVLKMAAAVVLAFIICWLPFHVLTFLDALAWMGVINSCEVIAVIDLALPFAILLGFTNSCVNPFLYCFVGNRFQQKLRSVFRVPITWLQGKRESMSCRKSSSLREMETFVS", "assay": "Binding assay of compounds to AT2R (Tag-lite HTRF ligand binding kit)", "protocol": "The assay was performed in accordance with the manufacturer instructions of Angiotensin AT2 Receptor Ligand Binding Assay Kit (#C1TT1AT2, Cisbio). First, a 10 mM compound stock solution was diluted in a gradient at a 5× dilution ratio (including 10 concentrations, each with two replicates). 160 nL of compounds at different concentrations was added to a 384-well plate. 40 µL of 1× TLB (TLB: Tag-lite buffer) was added to each well, and the mixture was shaken at room temperature for 15 minutes. A 15 mL centrifuge tube added with 5 mL of 1×TLB was prepared in advance. The frozen labeled cells were thawed in a water bath at 37°C (for 1 to 2 minutes), and the thawed cells were quickly transferred to the above 15 mL centrifuge tube. The mixture was mixed well and centrifuged at 1,000 g at room temperature for 5 minutes. The supernatant was removed, and the cells were resuspended by adding 2.7 mL 1× TLB. A new 384-well plate was taken, and 10 µL of mixed cells were added into the corresponding wells according to the assay design. 5 µL of 4× compound solution and 5 µL of 4× Tag-lite red fluorescent labeled ligand were added to each well. After incubation at room temperature for 1 hour, data were read using EnVision with an HTRF mode. The […] at 665nM and 615nM in each well were read respectively, and the ratio was calculated (Ratio=A665nM/B615nM). The IC50 value was calculated by means of GraphPad Prism8 software, where X represents logarithmic value of compound concentration; and Y represents ratio of A665nM/B615nM.", "units": {"IC50": "nM"}, "values": [
      {"smiles": "COC(=O)NS(=O)(=O)c1sc(CC(C)C)c(F)c1-c1ccc(Cn2ccnc2Cl)cc1", "note": "[Compound I-1, Methyl ((3-(4-((2-chloro-1H-imidazol-1-yl)methyl)phenyl)-4-fluoro-5-isobutylthiophen-2-yl)sulfonyl) carbamate]", "IC50": 6.67},
      {"smiles": "COC(=O)NS(=O)(=O)c1sc(CC(C)C)c(F)c1-c1ccc(Cn2ccnc2C(F)(F)F)cc1", "note": "[Compound I-2, Methyl ((4-fluoro-5-isobutyl-3-(4-((2-(trifluoromethyl)-1H-imidazol-1-yl)methyl)phenyl)thiophen-2-yl)sulfonyl) carbamate]", "IC50": 6.56},
      {"smiles": "CCCCOC(=O)NS(=O)(=O)c1sc(CC(C)C)c(F)c1-c1ccc(Cn2ccnc2C(C)(C)O)cc1", "note": "[Compound I-3, Butyl ((4-fluoro-3-(4-((2-(2-hydroxypropan-2-yl)-1H-imidazol-1-yl)methyl)phenyl)-5-isobutylthiophen-2-yl)sulfonyl)carbamate]", "IC50": 3.21},
      {"smiles": "CCCCOC(=O)NS(=O)(=O)c1sc(CC(C)C)c(F)c1-c1ccc(Cn2ccnc2C(F)(F)F)cc1", "note": "[Compound I-4, Butyl ((4-fluoro-5-isobutyl-3-(4-((2-(trifluoromethyl)-1H-imidazol-1-yl)methyl)phenyl)thiophen-2-yl)sulfonyl)carbamate]", "IC50": 3.46},
      {"smiles": "Cc1c(CC(C)C)sc(S(=O)(=O)NC(=O)OC[C@H](C)O)c1-c1ccc(Cn2ccnc2C(F)(F)F)cc1", "note": "[Compound I-11, (2S)-2-hydroxypropyl ((5-isobutyl-4-methyl-3-(4-((2-(trifluoromethyl)-1H-imidazol-1-yl)methyl)phenyl)thiophen-2-yl)sulfonyl)carbamate]", "IC50": 4.49},
      {"smiles": "Cc1c(CC(C)C)sc(S(=O)(=O)NC(=O)OC[C@@H](C)O)c1-c1ccc(Cn2ccnc2C(F)(F)F)cc1", "note": "[Compound I-12, (2R)-2-hydroxypropyl ((5-isobutyl-4-methyl-3-(4-((2-(trifluoromethyl)-1H-imidazol-1-yl)methyl)phenyl)thiophen-2-yl)sulfonyl)carbamate]", "IC50": 3.88},
      {"smiles": "Cc1c(CC(C)C)sc(S(=O)(=O)NC(=O)OC[C@H](C)O)c1-c1ccc(Cn2ccnc2Cl)cc1", "note": "[Compound I-16, (2S)-2-hydroxypropyl ((3-(4-((2-chloro-1H-imidazol-1-yl)methyl)phenyl)-4-methyl-5-isobutylthiophen-2-yl)sulfonyl)carbamate]", "IC50": 4.49},
      {"smiles": "Cc1c(CC(C)C)sc(S(=O)(=O)NC(=O)OC[C@@H](C)O)c1-c1ccc(Cn2ccnc2Cl)cc1", "note": "[Compound I-17, (2R)-2-hydroxypropyl ((3-(4-((2-chloro-1H-imidazol-1-yl)methyl)phenyl)-4-methyl-5-isobutylthiophen-2-yl)sulfonyl)carbamate]", "IC50": 3.88},
      {"smiles": "Cc1c(CC(C)C)sc(S(=O)(=O)NC(=O)OCCO)c1-c1ccc(Cn2ccnc2Cl)cc1", "note": "[Compound I-18, 2-hydroxyethyl ((3-(4-((2-chloro-1H-imidazol-1-yl)methyl)phenyl)-5-isobutyl-4-methylthiophen-2-yl)sulfonyl)carbamate]", "IC50": 3.52},
      {"smiles": "Cc1c(CC(C)C)sc(S(=O)(=O)NC(=O)NCc2ccccn2)c1-c1ccc(Cn2ccnc2C(F)(F)F)cc1", "note": "[Compound I-24]", "IC50": 4.41}
    ]}
  ]
}
